The values that follow come from publication PMC6778101 (Nature Communications, 2019).

Like-named read-outs stand apart in the source and are kept apart here. Ends that are not written are not given here. Peptide text beside a SMILES is read from it.

One series deals with E. coli K-12 BW25113. The series is described as follows: Laboratory evolution of resistance, MIC fold change of adapted lines. The series is classed as cell-based, Escherichia coli. The conditions noted are these: for MIC fold change following 20 transfers: Escherichia coli K-12 BW25113; for MIC fold change after the evolution: MIC evolved / MIC control, 20 transfers, ~120 generations. From the text:
Our first goal was to study resistance evolution against a set of AMPs and antibiotics. We have followed established protocols with minor modifications to evolve bacterial populations under controlled laboratory conditions[19],[20]. The applied protocol aims to maximize the level of drug resistance in the evolving populations achieved during a fixed time period. We have initiated a laboratory evolution experiment, starting with a single clone of Escherichia coli K-12 BW25113 (abbreviated as E. coli K-12 BW25113). Parallel evolving populations were exposed to increasing concentrations of one of 14 AMPs (Supplementary Table 1). Peptides were chosen based on the following criteria: diverse sources (synthetic/natural), different putative mechanisms of action, structural diversity, and clinical relevance. Another set of populations were exposed to one of 12 clinically relevant antibiotics (Supplementary Table 2), using the same protocol. Accordingly, we have propagated 10 independent populations in the presence of each AMP or antibiotic for ∼120 generations. We isolated a single, representative clone from each population, resulting in 140 AMP-adapted lines and 120 antibiotic-adapted lines. Throughout the paper, we compare the level of resistance in the evolved lines to the corresponding wild-type strain by measuring changes in the drugs’ minimum inhibitory concentrations (MIC).
The evolutionary protocol was designed to avoid population extinction and to ensure that populations with the highest level of resistance were propagated further. Starting with a subinhibitory drug concentration (Supplementary Data 8), resulting in ~50% growth inhibition, 10 parallel populations per drug were allowed to grow in Minimal Salts medium for 72 h and 300 r.p.m. E. coli K-12 BW25113 and E. coli mutD5 populations were incubated at 30 °C, while E. coli ATCC 25922, S. enterica LT2, K. pneumonia ATCC 10031, and A. baumannii ATCC 17978 were incubated at 37 °C. […] Prior to each transfer, cell growth was monitored by measuring the optical density at 600 nm (OD600 value, Biotek Synergy 2 microplate reader). Only populations with the highest drug concentration (and reaching OD600 > 0.2) were selected for further evolution. A chess-board layout was used on the plate to monitor potential cross-contamination events. […] E. coli mutD5 was adapted to TPII, also in 10 parallel evolving populations.
(§1) MICs were determined using a standard serial broth dilution technique. Briefly, 11-step serial dilutions were prepared in 96-well microtiter plates with three replicates per strain and antimicrobial compound. Each experiment was repeated at least twice. 5 × 10^5 cells/mL were inoculated into each well, and the plates were incubated at 30 °C in case of E. coli K-12 BW25113, and its antibiotic and AMP-adapted lines, or 37 °C in case of the other bacterial species. Plates were shaken at 300 r.p.m. during incubation for 24 and 18 h, respectively. Cell growth was monitored by measuring the optical density (OD600 value, Biotek Synergy 2 microplate reader was used for this purpose). […] Relative MIC was calculated as follows: MICrelative = MICevolved/MICcontrol.

Series [1] has as its system S. enterica LT2. It counts as cell-based, Salmonella enterica subsp. enterica serovar Typhimurium. The conditions noted are these: broth dilution, 37 °C, 18 h. How it is done:
(§2) Unless otherwise indicated, we used E. coli K-12 BW25113 in all high-throughput experiments. To investigate the impact of mutation rate on evolution of AMP resistance, we initiated laboratory evolution with a mutator strain E. coli mutD5 that carries mutations in the dnaQ gene (L73W and A164V).
as §1

Series [2] has as its system S. enterica LT2. Description: Laboratory evolution of resistance, MIC fold change of adapted lines. The conditions noted are these: Salmonella enterica serovar Typhimurium LT2; parallel line 1 of 10. It counts as cell-based, Salmonella enterica subsp. enterica serovar Typhimurium. From the text: The tested pathogens initially sensitive to the AMPs and the antibiotics included Escherichia coli (ATCC® 25922™) (abbreviated as E. coli ATCC 25922), Salmonella enterica subsp. enterica serovar Typhimurium LT2 (abbreviated as S. enterica LT2), Klebsiella pneumoniae subsp. pneumoniae (Schroeter) Trevisan (ATCC® 10031™) (abbreviated as K. pneumoniae ATCC 10031) and Acinetobacter baumannii Bouvet and Grimont (ATCC® 17978™) (abbreviated as A. baumannii ATCC 17978).
The evolutionary protocol was designed to avoid population extinction and to ensure that populations with the highest level of resistance were propagated further. Starting with a subinhibitory drug concentration (Supplementary Data 8), resulting in ~50% growth inhibition, 10 parallel populations per drug were allowed to grow in Minimal Salts medium for 72 h and 300 r.p.m. […] Prior to each transfer, cell growth was monitored by measuring the optical density at 600 nm (OD600 value, Biotek Synergy 2 microplate reader). […]
MICs were determined using a standard serial broth dilution technique. […] Cell growth was monitored by measuring the optical density (OD600 value, Biotek Synergy 2 microplate reader was used for this purpose). […] Relative MIC was calculated as follows: MICrelative = MICevolved/MICcontrol.

The test system of a further series is Human red blood cells. Description: Hemolysis assay. The series is classed as cell-based. The note with it: for ATI (activity/toxicity index), ratio MHC / MM: MHC on human red blood cells / median of MICs in E. coli K12. As for the experimental part:
Human red blood cells (hemoglobin concentration (Hb) 150–160 g L^−1) were collected from apparently healthy patients in EDTA tubes. 600 µL of EDTA-blood were washed in TBS buffer (10 mM TRIS, 150 mM NaCl) and centrifuged at 1500 × g for 1 min until the supernatant became colorless. The final pellet was diluted to 5 mL with TBS buffer. Hundred microliters of this cell suspension was pipetted into sterile Eppendorf tubes together with twofold serial dilutions of each compound to a final volume of 200 μl. Final concentrations ranged between 2500 µg mL^−1–9.75 µg mL^−1. Following incubation for one hour at 37 °C, samples were centrifuged at 1500 g for 1 min to precipitate the red blood cells. All supernatants were transferred to sterile 96-well plates for the measurement of their direct optical density (OD) at 565 nm wavelength (Multiskan FC microplate reader, Thermo Scientific). Melittin (Bachem) at concentration of 50 µg.mL^−1 and TBS were used as positive (100% hemolysis) and negative (no hemolysis) controls, respectively. Haemolytic effect of each peptide at each concentration was calculated as follows: Hemolysis effect = (Compound OD565nm − TBS OD565nm) × 100/(Melitin OD565nm − TBS OD565nm).

For the next series, the system named is K. pneumoniae ATCC 10031. It counts as cell-based, Klebsiella pneumoniae. The conditions noted are these: Klebsiella pneumoniae ATCC 10031; broth dilution, 37 °C, 18 h. As for the experimental part: as §2, §1
The subject of series [3] is Klebsiella pneumoniae subsp. pneumoniae ATCC 700603. The series is classed as cell-based. The conditions noted are these: broth dilution, 37 °C, 18 h. How it is done: as §2, §1
Series [4] relates to Pseudomonas aeruginosa ATCC 27853. The series is classed as cell-based. The note with it: broth dilution, 37 °C, 18 h. How it is done:
as §2, §1

Series [5] deals with Salmonella enteritidis HNCMB 10092. It counts as cell-based. The conditions noted are these: broth dilution, 37 °C, 18 h. As for the experimental part: as §2, §1
Series [6] relates to Shigella flexneri HNCMB 20018. The series is classed as cell-based. The note with it: broth dilution, 37 °C, 18 h. How it is done:
as §2, §1

The subject of series [7] is Streptococcus pyogenes ATCC 19653. It counts as cell-based. The note with it: broth dilution, 37 °C, 18 h. How it is done: as §2, §1
Setting [8] is: parallel line 1 of 10 adapted to the agent.

For `NC[C@H]1O[C@H](O[C@H]2[C@H](O)[C@@H](O[C@H]3O[C@H](CO)[C@@H](O)[C@H](N)[C@H]3O)[C@H](N)C[C@@H]2N)[C@H](O)[C@@H](O)[C@@H]1O` [KAN, Kanamycin], the “MIC fold change following 20 transfers” value in the series with E. coli K-12 BW25113 (setting [8]) came out at 256 fold; in the series with E. coli K-12 BW25113 (parallel line 2 of 10 adapted to the agent) it was 256 fold; in the series on E. coli K-12 BW25113 (parallel line 3 of 10 adapted to the agent), 177 fold; with E. coli K-12 BW25113 (parallel line 4 of 10 adapted to the agent) it was 177 fold; in the series on E. coli K-12 BW25113 (parallel line 5 of 10 adapted to the agent), 93 fold; in the series with E. coli K-12 BW25113 (parallel line 6 of 10 adapted to the agent) it was 256 fold. The “MIC fold change following 20 transfers” value in the series on E. coli K-12 BW25113 (parallel line 7 of 10 adapted to the agent) is recorded as 256 fold; in the series on E. coli K-12 BW25113 (parallel line 8 of 10 adapted to the agent), 49 fold; in the series with E. coli K-12 BW25113 (parallel line 9 of 10 adapted to the agent) it was 177 fold; in the series on E. coli K-12 BW25113 (parallel line 10 of 10 adapted to the agent) it was 93 fold. Further, the “MIC fold change after the evolution” value is reported as 256 with E. coli K-12 BW25113 (parallel-evolved line 1); 256 in the series with E. coli K-12 BW25113 (parallel-evolved line 2); 177 in the series on E. coli K-12 BW25113 (parallel-evolved line 3); 177 with E. coli K-12 BW25113 (parallel-evolved line 4); 93 in the series on E. coli K-12 BW25113 (parallel-evolved line 5); 256 in the series with E. coli K-12 BW25113 (parallel-evolved line 6). Further, the “MIC fold change after the evolution” value with E. coli K-12 BW25113 (parallel-evolved line 7) was 256; in the series with E. coli K-12 BW25113 (parallel-evolved line 8) it was 49; in the series on E. coli K-12 BW25113 (parallel-evolved line 9) it was 177; in the series with E. coli K-12 BW25113 (parallel-evolved line 10), 93.

Regarding `CC[C@H](C)[C@@H]1NC(=O)CNC(=O)[C@H](CCCNC(=N)N)NC(=O)[C@H](Cc2ccc(O)cc2)NC(=O)[C@@H]2CSSC[C@H](NC1=O)C(=O)N[C@@H](Cc1ccc(O)cc1)C(=O)N[C@@H](CCCNC(=N)N)C(=O)N[C@@H](CCCCN)C(=O)N[C@H](C(=O)N[C@@H](CCCNC(=N)N)C(N)=O)CSSC[C@H](NC(=O)[C@H](Cc1c[nH]c3ccccc13)NC(=O)[C@@H](N)CCCNC(=N)N)C(=O)N[C@@H](Cc1ccccc1)C(=O)N[C@@H](CCCNC(=N)N)C(=O)N[C@@H](C(C)C)C(=O)N2` [TPII, tachyplesin II] (HELM PEPTIDE1{R.W.C.F.R.V.C.Y.R.G.I.C.Y.R.K.C.R.[am]}$PEPTIDE1,PEPTIDE1,3:R3-16:R3|PEPTIDE1,PEPTIDE1,7:R3-12:R3$$$V2.0; N-terminus and C-terminus assumed; bridges inferred), the MIC with S. enterica LT2 [1] (starting strain, MS medium) was 4 µg/mL. The “MIC fold change following 20 transfers” value in the series with E. coli K-12 BW25113 (setting [8]) and in the series with S. enterica LT2 [2] was 1.0 fold each time. Also, the “average MIC fold change after the evolution” value in the series on E. coli K-12 BW25113 (average of MIC fold change of the 10 independently adapted populations) is reported as 1.000. Moreover, the “MIC fold change after the evolution” value in the series with E. coli K-12 BW25113 (parallel-evolved line 1), in the series with E. coli K-12 BW25113 (parallel-evolved line 2), in the series with E. coli K-12 BW25113 (parallel-evolved line 3), with E. coli K-12 BW25113 (parallel-evolved line 4), in the series on E. coli K-12 BW25113 (parallel-evolved line 5) and in the series with E. coli K-12 BW25113 (parallel-evolved line 6) was 1 throughout. The “MIC fold change after the evolution” value in the series on E. coli K-12 BW25113 (parallel-evolved line 7), with E. coli K-12 BW25113 (parallel-evolved line 8), with E. coli K-12 BW25113 (parallel-evolved line 9) and in the series on E. coli K-12 BW25113 (parallel-evolved line 10) was 1 each time. The “resistance in evolved lines after laboratory evolution (in words)” value with E. coli K-12 BW25113 (~120 generations under increasing drug concentration) was “failed to detect any resistance”. Also, in the series with Human red blood cells, the “ATI (activity/toxicity index), ratio MHC / MM” value is 155.22.

In the case of “SWLSKTAKKLENSAKKRISEGIAIAIQGGPR [CP1, Cecropin P1]”, the MIC with S. enterica LT2 [1] (Salmonella enterica subsp. enterica serovar Typhimurium LT2) was 1.2 to 2.4 µM; in the series on K. pneumoniae ATCC 10031 it was 1.2 to 2.4 µM; in series [3], 2.4 µM; in series [4], 2.4 µM; in [5] it was 1.2 µM; in series [6], 1.2 µM. For the same compound, the minimal inhibitory concentration (MIC) in series [7] was more than 9.6 µM. Besides, the “ATI (activity/toxicity index), ratio MHC / MM” value in the series with Human red blood cells is more than 847.45. In addition, the “MHC (minimum haemolytic concentration, concentration causing 10% haemolysis)” value in the series on Human red blood cells (human red blood cells, 1 h, 37 °C) was more than 2500 µg/mL.
